Measurements: patent US20240368173A1, “TRICYCLIC GPR65 MODULATORS” (PATHIOS THERAPEUTICS LIMITED, priority 2021, published 2024)

molecular target: human recombinant GPR65 (Homo sapiens, UniProt Q8IYL9); test: Human GPR65 cAMP HTRF antagonist assay; type: cell-based
In short: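 1321N1 astrocytoma cells stably expressing hrGPR65, with IBMX and EDTA, were preincubated with compound 30 min at room temperature, then acid-activated at assay pH 7.2 (control pH 7.9) for 30 min. cAMP read by HTRF (665/620 nm ratio); IC50 from 4-parameter fit normalised to high/low controls.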

Chain of human recombinant GPR65 (Q8IYL9 whole entry): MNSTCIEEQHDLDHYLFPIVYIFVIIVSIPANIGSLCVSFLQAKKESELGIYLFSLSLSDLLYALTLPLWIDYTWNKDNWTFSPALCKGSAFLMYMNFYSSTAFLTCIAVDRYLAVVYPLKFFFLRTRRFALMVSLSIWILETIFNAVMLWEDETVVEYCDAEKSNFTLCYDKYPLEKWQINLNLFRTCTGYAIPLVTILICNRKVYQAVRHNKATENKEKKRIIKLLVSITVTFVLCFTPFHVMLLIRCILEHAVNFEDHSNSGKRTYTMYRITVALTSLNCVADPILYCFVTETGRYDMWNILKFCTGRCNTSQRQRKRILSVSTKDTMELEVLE

Question: How did the IC50 turn out when `CN1CCc2cc(-c3cc(F)c(NC(=O)N4[C@H]5CC[C@@H]4c4n[nH]c(=O)cc4C5)cc3Cl)ccc2C1=O` [Compound 175, (6S,9R)-N-(5-Chloro-2-fluoro-4-(2-methyl-1-oxo-1,2,3,4-tetrahydroisoquinolin-6-yl)phenyl)-3-oxo-3,5,6,7,8,9-hexahydro-2H-6,9-epiminocyclohepta[c]pyridazine-10-carboxamide] was run?
Answer: < 500 nM

Question: With `O=C(Nc1cc(Cl)c(Br)cc1F)N1C2CCC1c1c[nH]c(=O)nc1C2` (racemic) [Compound 16, (±)-N-(4-bromo-5-chloro-2-fluorophenyl)-2-oxo-3,5,6,7,8,9-hexahydro-2H-5,8-epiminocyclohepta[d]pyrimidine-10-carboxamide] as the compound, how does the IC50 read?
Answer: < 500 nM

Question: With `O=C(Nc1cc(Cl)c(-c2ccc(OCCC(F)(F)F)nc2)cc1F)N1[C@H]2CC[C@@H]1c1n[nH]c(=O)cc1C2` [Compound 320, (6S,9R)-N-(5-Chloro-2-fluoro-4-(6-(3,3,3-trifluoropropoxy)pyridin-3-yl)phenyl)-3-oxo-3,5,6,7,8,9-hexahydro-2H-6,9-epiminocyclohepta[c]pyridazine-10-carboxamide] as the compound, how does the IC50 read?
Answer: < 500 nM

Question: `O=C(Nc1cc(Cl)c(-c2ccc(OC3CCC3)nc2)cc1F)N1[C@H]2CC[C@@H]1c1n[nH]c(=O)cc1C2` [Compound 216, (6S,9R)-N-(5-Chloro-4-(6-cyclobutoxypyridin-3-yl)-2-fluorophenyl)-3-oxo-3,5,6,7,8,9-hexahydro-2H-6,9-epiminocyclohepta[c]pyridazine-10-carboxamide] was tested. Which IC50 did it give?
Answer: < 500 nM

Question: How did the IC50 turn out when `O=C(Nc1cc(Cl)c(-c2ccnc3[nH]ccc23)cc1F)N1[C@H]2CC[C@@H]1c1n[nH]c(=O)cc1C2` [Compound 148, (6S,9R)-N-(5-Chloro-2-fluoro-4-(1H-pyrrolo[2,3-b]345yridine-4-yl)phenyl)-3-oxo-3,5,6,7,8,9-hexahydro-2H-6,9-epiminocyclohepta[c]pyridazine-10-carboxamide] was run?
Answer: 500 to 5000 nM

Question: With `O=C(Nc1cc(Cl)c(-c2ccc3nsnc3c2)cc1F)N1[C@H]2CC[C@@H]1c1n[nH]c(=O)cc1C2` [Compound 168, (6S,9R)-N-(4-(Benzo[c][1,2,5]thiadiazol-5-yl)-5-chloro-2-fluorophenyl)-3-oxo-3,5,6,7,8,9-hexahydro-2H-6,9-epiminocyclohepta[c]pyridazine-10-carboxamide] as the compound, how does the IC50 read?
Answer: < 500 nM

Question: For `O=C(Nc1cc(Cl)c(-c2cncc(F)c2)cc1F)N1[C@H]2CC[C@@H]1c1ccnc(F)c1C2` [Compound 200, (5R,8S)-N-(5-Chloro-2-fluoro-4-(5-fluoropyridin-3-yl)phenyl)-1-fluoro-6,7,8,9-tetrahydro-5H-5,8-epiminocyclohepta[c]pyridine-10-carboxamide], which IC50 is on record?
Answer: < 500 nM
